Holding throughout (test): Antibacterial spectrum, MIC determination (method of Japan Society of Chemotherapy)
What all share (assay type): cell-based

Assay [1] has as its system Staphylococcus aureus 209 P. Conditions: Staphylococcus aureus 209 P, Gram +, 10^6 cells/ml; read-out: MIC.
For assay [2], the system named is Peptococcus magnus KY 017. Conditions: Finegoldia magna, KY017; Peptococcus magnus KY 017, Gram +, 10^6 cells/ml; read-out: MIC.
Another assay concerns F. varium KYA 8501. The settings on record: Fusobacterium varium, KYA8501; F. varium KYA 8501, Gram -, 10^6 cells/ml.
Another assay deals with Shigella sonnei IID 969. The settings on record: IID969; Shigella sonnei IID 969, Gram -, 10^6 cells/ml. The procedure:
Minimal inhibitory concentrations (MICs) were determined in accordance with the method recommended by Japan Society of Chemotherapy.

A further assay has as its system B. distasonis 8503. The settings on record: Parabacteroides distasonis; B. distasonis 8503, Gram -, 10^6 cells/ml; read-out: MIC.
For a further assay, the system named is S. aureus Smith. The settings on record: Staphylococcus aureus; S. aureus Smith, Gram +, 10^6 cells/ml; read-out: MIC.
The test system of the next assay is E. coli ATCC 10536. Conditions: Escherichia coli, ATCC10536; E. coli ATCC 10536, Gram -, 10^6 cells/ml; read-out: MIC.
Another assay relates to F. necrophorum S-45. Conditions: Fusobacterium necrophorum, S45; F. necrophorum S-45, Gram -, 10^6 cells/ml.
Assay [3] concerns Proteus vulgaris IFO 3167. Conditions: IFO3167; Proteus vulgaris IFO 3167, Gram -, 10^6 cells/ml; read-out: MIC.
Assay [4] has as its system Enterobacter cloacae IID 977. Conditions: IID977; Enterobacter cloacae IID 977, Gram -, 10^6 cells/ml.
For assay [5], the system named is Eubacterium lentum GAI 5242. Conditions: Eggerthella lenta, GAI5242; Eubacterium lentum GAI 5242, Gram +, 10^6 cells/ml.
Assay [6] relates to Morganella morganii IID 602. The settings on record: IID602; Morganella morganii IID 602, Gram -, 10^6 cells/ml.
For assay [7], the system named is Serratia marcescens IID 618. Conditions: IID618; Serratia marcescens IID 618, Gram -, 10^6 cells/ml; read-out: MIC.
Assay [8] relates to Veillonella parvula KYA 10790. The settings on record: KYA10790; Veillonella parvula KYA 10790, Gram -, 10^6 cells/ml.
For assay [9], the system named is Escherichia coli NIHJ JC-2. The settings on record: NIHJJC2; Escherichia coli NIHJ JC-2, Gram -, 10^6 cells/ml.
Assay [10] deals with Salmonella enteritidis IID 604. Conditions: Salmonella enterica; Salmonella enteritidis IID 604, Gram -, 10^6 cells/ml; read-out: MIC.
In assay [11] the test system is Streptococcus pyogenes (S-8). The settings on record: Streptococcus pyogenes (S-8), Gram +, 10^6 cells/ml; read-out: MIC.

Converted amounts (≈) assume the structure as drawn.

The term MIC denotes the smallest concentration in the dilution series that meets the test's criterion for growth inhibition.

As to `NC1CCN(c2c(F)cc3c(=O)c(C(=O)O)cn(C4CC4)c3c2Br)C1` (centres unmarked) [Exp. 1, 7-(3-Amino-1-pyrrolidinyl)-8-bromo-1-cyclopropyl-6-fluoro-1,4-dihydro-4-oxo-3-quinolinecarboxylic acid], the MIC in [1] amounted to 0.05 µg/mL (≈ 0.122 µM); in assay [2] it was 0.1 µg/mL (≈ 0.244 µM); in the assay on F. varium KYA 8501 it was 0.78 µg/mL (≈ 1.9 µM); in the assay on Shigella sonnei IID 969, 0.0063 µg/mL (≈ 0.0154 µM); with B. distasonis 8503, 0.39 µg/mL (≈ 0.951 µM); in the assay on S. aureus Smith, 0.05 µg/mL (≈ 0.122 µM). Further, the MIC in the assay with E. coli ATCC 10536 was 0.0125 µg/mL (≈ 0.0305 µM); in the assay with F. necrophorum S-45, 0.2 µg/mL (≈ 0.488 µM); in [3], 0.0125 µg/mL (≈ 0.0305 µM); in [4] it was 0.025 µg/mL (≈ 0.0609 µM); in assay [5], 0.1 µg/mL (≈ 0.244 µM); in assay [6] it was 0.05 µg/mL (≈ 0.122 µM). Besides, the MIC in assay [7] came to 0.05 µg/mL (≈ 0.122 µM); in [8], 0.1 µg/mL (≈ 0.244 µM); in assay [9], 0.0063 µg/mL (≈ 0.0154 µM); in [10], 0.025 µg/mL (≈ 0.0609 µM); in assay [11] it was 0.1 µg/mL (≈ 0.244 µM).

The values are drawn from patent EP0207497A2, “Quinolonecarboxylic acid derivative and process for its preparation” (KYORIN PHARMACEUTICAL CO., LTD., priority 1985, dated 1987).
